From patent US5614504A, “Method of making inosine monophosphate derivatives and immunopotentiating uses thereof” (The University of South Florida, priority 1995, dated 1997)

Tests used:
[1] = test system: spleen plaque antibody forming cells (PFC); assay: In vivo stimulation of PFC response to SRBC; design: species or system mice
Method: Five days later, suspensions of spleen cells were prepared and their viability was determined by trypan blue exclusion test. Cells were suspended at 3×10^6 /ml. 0.2 ml of spleen cell suspension was mixed with 0.8 ml of 0.7% agarose and 0.2 ml of freshly washed SRBC (at 6×10^5 /ml). The mixture was immediately poured into the plate and allowed to solidify. After 60 minutes of incubation at 37° C. in a humid atmosphere of 5% CO2 in the air, the plate was flooded with 1 ml of guinea-pig complement diluted 1:5 with Hank's balanced saline. Hemolytic plaques were counted with an inverted scope using 4× magnification.
Spleen plaque antibody forming cells (PFC) were measured at the end of the five days.

Acute toxicity (LD50) = conditions: in vivo
CD4+ lymphocytes = assay: PHA response of CD4+ enriched human lymphocytes; format: cell-based; conditions: MIMP 1-200 μg/ml, 3 donors, p <0.01
From the text: Human CD4+ and CD8+ lymphocyte subsets were obtained from normal controls using commercial panning techniques (Applied Immune Sciences, Santa Clara, Calif.).
Human peripheral blood lymphocytes are on average approximately 80% T lymphocytes and 20% B lymphocytes and of the T lymphocytes, 2/3 are of the CD4+ helper/inducer phenotype and 1/3 are the CD8+ suppressor/cytotoxic phenotype. Enrichment of CD4+ T cells or CD8+ T cells can be achieved through reduction of the other phenotype (>98%) removal using adherence to monoclonal antibody-coated flasks (panning).

anti-HBs = assay: Anti-HBs responses in immunocompromised irradiated DBA/2 mice (EIA); format: in vivo; conditions: for anti-HBs, Day 21: p < 0.01
Method: Experimental mice were irradiated at a dose rate of 25 rad/min (1 rad=0.01 Gy) using a ^60 Coγ beam source for four minutes. Data represent the average of ten animals in each group.
Serum specimens from immunized mice were tested for the presence of anti-HBs in an enzyme immunoassay (EIA) using the diagnostic kits of Roche Diagnostica as per the manufacturer's instructions. The anti-HBs EIA kit (Roche), has a sensitivity of <10 IU/1.
Antibody concentration was determined with the help of calibration curves designed on the basis of the results of anti-HBs detection in standard serum panel (Roche Diagnostica) with the concentrations, as follows: 10 IU/l; 50 IU/l; 100 IU/l and 150 IU/l. The results of the two experiments were used for the calculation of mean values.
In a second set of experiments, the effect of MIMP on the induction of a specific immune response to HBsAg in immunocompromised DBA/2 mice subjected to ionizing radiation was analyzed using the same vaccination schemes as set forth for the control DBA/2.

in vitro = in vitro ADME, Crotalus atrox; conditions: rattlesnake, pH 7.3; 0.02 units 5'-nucleotidase, 37° C., 10 minutes; four experiments; read-out: Hydrolysis (%)
Method: Nucleotide samples (40-60 nmoles) were incubated at 37° C. for 10 minutes with 0.02 units 5'-nucleotidase in a total volume of 100 μl containing […] HEPES, pH 7.3 and […] MgCl2. […] Phosphate was determined by the absorbance of 820 nm. Blanks consisting of nucleotide but no enzyme were tested in parallel to correct for non-enzymatic hydrolysis.

[2] = test system: human peripheral blood lymphocytes (HPBL); assay: Reversal of suppression of HPBL PHA response by HIV gp41 peptide, interferon α and PGE2; format: cell-based; conditions: for effect on gp41 peptide-suppressed PHA proliferation: MIMP 0.1-100 μg/ml
From the text: A 17 amino acid sequence from the gp41 portion of the gp16O peptide of the human immunodeficiency virus (HIV) was synthesized and kindly provided to us by M. Strand (Johns Hopkins University, Baltimore, Md.) (Reugg and Strand, 1990).
Prostaglandin E2 was obtained from Sigma Chemicals (St. Louis, Mo.) and recombinant interferon-α (IFNα, Intron A) was obtained from Schering Corp. (Kenilworth, N.J.).
A synthetic 17 amino acid peptide representing the immunosuppressive site of the intramembranous gp41 portion of the human immunodeficiency virus (HIV) was tested on lymphocytes from controls. […] The effect of MIMP from 0.1-100 μg/ml was examined in combination with varying degrees of inhibition by the peptide.
Virus infections are associated with depressed lymphoproliferative responses.

[3] = test system: human peripheral blood lymphocytes (HPBL); assay: Response of normal HPBL to PWM; format: cell-based; conditions: PWM 0.5 μg/ml
Method: In vitro: Both human peripheral blood lymphocytes (HPBL) and mouse spleen lymphocytes (MSL) were employed. Proliferation was assayed by tritiated thymidine incorporation, as described in Hadden et al. (1975) and Hadden et al. (1986). For HPBL transformation, PHA and PWM were used at 0.5 μg/ml. For MSL transformation, Con A was used at 0.5 μg/ml, phytohemagglutinin (PHA, Murex Diagnostics, Atlanta, Ga.) at 0.5 μg/ml and lipopolysaccharide endotoxin (LPS, Sigma, St. Louis, Mo.) at 10 μg/ml. When protected-IMP derivatives were added, they were added at the onset of culture at varying concentrations ranging from 0.1 μg/ml to 100 μg/ml.
Murine splenocytes were obtained from BALB/c mice, 4-12 months old, by standard procedures (Hadden et al., 1975). They were cultured in microwell plates at 1.5×10^6 cells/ml of minimal essential media (MEM, Gibco Labs, Grand Island, N.Y.) with 5% fetal calf serum (FCS, Hyclone Labs, Logan, Utah) and tested for their proliferative response to mitogens as measured by incorporation of (^3 H) tritiated thymidine (New England Nuclear, Wilmington Del., […]; 2.5 μCi/ml) during a terminal pulse followed by liquid scintillation spectrometry. Human cells were seeded at […] and cultured for 48 hours with an 18 hour pulse with ^3 H-thymidine.
Normal human peripheral blood lymphocytes (HPBL) were stimulated with the mitogenic agents PHA or PWM. […]

L. monocytogenes EGD = assay: Listeria infection mortality; format: in vivo, BALB/c mice; conditions: for Mortality: Dead/Total: 1 dose, Day -5, day 4
[4] = test system: Salm. typhimurium strain 415; assay: Salmonella infection mortality; format: in vivo, BALB/c mice; conditions: the various treatments of MIMP; p<0.01; control about 2.5 days
[5] = scheme 6: Radiation + scheme N2 (HBsAg + MIMP per os)
[6] = scheme 7: Radiation + scheme N3 (HBsAg + MIMP i.p. then per os)

COP(=O)(O)OC[C@H]1O[C@@H](n2cnc3c(=O)[nH]cnc32)[C@H](O)[C@@H]1O [Me-IMP, Methyl-5'-inosine-monophosphate]
effect on PFC response ([1]; 50 mg/kg of body weight ip with SRBC, PFC five days later): significantly stimulated
dose of optimal stimulation of PFC response ([1]; intraperitoneal): 50 mg/kg of body weight
PFC activity at lower doses ([1]; intraperitoneal, below 50 mg/kg): active at lower doses
peak dose for stimulation of PFC response ([1]; oral, with SRBC antigen and daily for five days): 50 mg/kg of body weight
LD50 (Acute toxicity (LD50); ip, intraperitoneally): > 500 mg/kg
LD50 (Acute toxicity (LD50); po, orally): > 5000 mg/kg
PHA response of CD4+ lymphocytes (CD4+ lymphocytes): significantly augmented
anti-HBs, Day 14 (anti-HBs; [5]): < 10 IU/1
anti-HBs, Day 21 (anti-HBs; [5]): 100 IU/1
anti-HBs, Day 14 (anti-HBs; [6]): < 10 IU/1
anti-HBs, Day 21 (anti-HBs; [6]): 100 IU/1
metabolised at 10 min (in vitro): 2.1%
effect on gp41 peptide-suppressed PHA proliferation ([2]; inhibition more severe (>50%)): not significant
effect on gp41 peptide-suppressed PHA proliferation ([2]; peptide-induced suppression less than 50%): restored the proliferative responses to near-normal ranges
effect on rIFN-α inhibition of PHA response ([2]; MIMP 1, 10, 100 μg/ml, 10 and 100 units/ml IFN α): reverse the inhibition when it is moderate
effect on PGE2 inhibition of PHA response ([2]; MIMP 1-100 μg/ml, PGE2 10^-5 M): reverse the inhibition
effect on PWM response of HPBL [3]: not affected
MST and survivors (L. monocytogenes EGD; 0.1 to 10 mg/kg, combined i.p. and p.o. from five days prior to challenge): increased MST and survivors
mean survival time (MST) and absolute number of survivors (L. monocytogenes EGD; by mouth and at 1 and 10 mg/kg by i.p. injection, five days prior to challenge): increased mean survival time (MST) and the absolute number of survivors
Mortality: Dead/Total (L. monocytogenes EGD; scheme N1 2: MIMP 1.0 per os): 2/3
Mortality: Dead/Total (L. monocytogenes EGD; scheme N1 3: MIMP 10.0 per os): 1/8
MST [4]: about four
